Data from US8822517B2, “Arylosulfonamides for the treatment of CNS diseases” (Adamed SP. Z O.O., priority 2010, dated 2014).
Where two headings read alike, the source gives them in different places.

Assays:
[1] = target: T1, serotoninergic 5-HT7 receptor (Homo sapiens, UniProt P34969); assay: Cellular functional assay, serotoninergic 5-HT7 receptor (agonism/antagonism); format: cell-based; settings: for activation at 1 µM: agonist effect, percent of control specific agonist response, compounds tested at 1×10^−6M, read-out: 5-HT7-ag [%]; for inhibition at 1 µM: read-out: 5-HT7-antag. [%]
T1 sequence (P34969 whole entry): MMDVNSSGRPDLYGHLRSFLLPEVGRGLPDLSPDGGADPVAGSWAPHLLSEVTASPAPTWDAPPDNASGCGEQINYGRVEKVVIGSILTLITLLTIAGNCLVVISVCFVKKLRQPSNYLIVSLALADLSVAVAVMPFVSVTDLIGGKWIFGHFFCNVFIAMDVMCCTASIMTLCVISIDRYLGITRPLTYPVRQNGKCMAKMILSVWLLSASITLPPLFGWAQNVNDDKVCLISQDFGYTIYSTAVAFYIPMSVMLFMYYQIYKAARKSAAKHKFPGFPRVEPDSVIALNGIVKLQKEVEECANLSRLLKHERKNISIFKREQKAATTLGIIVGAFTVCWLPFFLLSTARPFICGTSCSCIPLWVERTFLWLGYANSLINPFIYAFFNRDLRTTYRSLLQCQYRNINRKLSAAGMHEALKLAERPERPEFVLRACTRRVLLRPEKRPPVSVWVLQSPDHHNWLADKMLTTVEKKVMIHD
Procedure: (§1) The compounds were tested at the concentration of 1×10^−6M.
(§2) In the Tables ag refers to agonism, and antag to antagonism).

[2] = target: T2, serotoninergic receptor 5-HT2C (Homo sapiens, UniProt P28335); assay: Binding assay 5-HT2C (h), [3H]mesulergine, HEK-293 cells; settings: read-out: 5-HT2C [%]
T2 construct: expressed in transfected cells; host or cells: HEK-293 cells
T2 sequence (P28335 33-458): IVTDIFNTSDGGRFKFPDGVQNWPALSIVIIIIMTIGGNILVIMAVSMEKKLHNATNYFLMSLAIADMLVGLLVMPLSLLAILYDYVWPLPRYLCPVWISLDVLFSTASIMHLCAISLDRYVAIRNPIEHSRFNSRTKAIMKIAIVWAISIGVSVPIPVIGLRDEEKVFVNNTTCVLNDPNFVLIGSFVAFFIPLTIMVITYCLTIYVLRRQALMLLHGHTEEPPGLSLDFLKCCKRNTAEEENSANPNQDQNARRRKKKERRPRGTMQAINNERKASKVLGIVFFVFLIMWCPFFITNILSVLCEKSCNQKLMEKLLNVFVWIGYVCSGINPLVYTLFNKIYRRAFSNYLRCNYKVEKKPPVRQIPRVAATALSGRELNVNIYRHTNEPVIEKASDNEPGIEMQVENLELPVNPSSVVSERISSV
How it was run: (§3)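 Radioligand displacement with compounds at 1×10^−6 M, detected by scintillation counting. Specific binding taken as total minus non-specific binding measured with excess unlabelled ligand.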

[3] = target: T3, dopaminergic D2 receptor (Homo sapiens, UniProt P14416); assay: Cellular functional assay, dopaminergic D2 receptor (agonism/antagonism); format: cell-based; settings: for inhibition at 1 µM: read-out: D2-antag. [%]
Procedure: as §1, §2
Target sequence in this assay (P14416 whole entry): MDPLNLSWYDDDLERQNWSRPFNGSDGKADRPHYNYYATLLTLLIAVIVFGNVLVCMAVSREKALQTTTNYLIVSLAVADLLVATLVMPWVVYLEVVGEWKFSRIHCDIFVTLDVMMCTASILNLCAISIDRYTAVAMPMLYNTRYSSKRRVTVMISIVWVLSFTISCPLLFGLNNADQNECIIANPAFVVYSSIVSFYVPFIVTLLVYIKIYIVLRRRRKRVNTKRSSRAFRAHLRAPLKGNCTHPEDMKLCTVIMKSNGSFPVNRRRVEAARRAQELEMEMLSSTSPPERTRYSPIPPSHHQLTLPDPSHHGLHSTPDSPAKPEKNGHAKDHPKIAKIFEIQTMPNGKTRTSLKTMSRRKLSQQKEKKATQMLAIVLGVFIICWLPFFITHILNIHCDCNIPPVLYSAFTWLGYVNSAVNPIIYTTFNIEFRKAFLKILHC

[4] = tested on: sigma σ receptor; assay: Binding assay σ (non-selective), [3H]DTG, rat cerebral cortex; settings: percent inhibition of control specific binding; compounds tested at 1×10^−6 M
How it was run: as §3

[5] = target: histaminergic H1 receptor (Homo sapiens, UniProt P35367); assay: Binding assay H1 (h), [3H]pyrilamine, HEK-293 cells; design: expressed in transfected cells; host or cells: HEK-293 cells; settings: read-out: H1 [%]
histaminergic H1 receptor, sequence (P35367 whole entry): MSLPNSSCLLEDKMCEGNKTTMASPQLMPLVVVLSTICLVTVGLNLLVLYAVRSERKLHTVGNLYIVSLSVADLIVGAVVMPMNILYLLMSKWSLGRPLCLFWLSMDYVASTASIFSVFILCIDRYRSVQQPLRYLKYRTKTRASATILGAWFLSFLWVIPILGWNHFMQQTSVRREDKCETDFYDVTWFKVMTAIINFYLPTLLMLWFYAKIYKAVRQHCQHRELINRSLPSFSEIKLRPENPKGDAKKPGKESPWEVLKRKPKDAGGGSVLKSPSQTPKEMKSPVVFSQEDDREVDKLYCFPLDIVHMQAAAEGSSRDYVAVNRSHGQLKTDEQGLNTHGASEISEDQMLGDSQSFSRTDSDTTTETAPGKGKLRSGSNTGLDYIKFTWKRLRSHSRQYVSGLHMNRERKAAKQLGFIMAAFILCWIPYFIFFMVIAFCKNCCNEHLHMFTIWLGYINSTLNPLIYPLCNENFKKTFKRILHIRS
How it was run: as §3

[6] = tested on: adrenergic α1 receptor; assay: Binding assay α1 (non-selective), [3H]prazosin, rat cerebral cortex; settings: percent inhibition of control specific binding; compounds tested at 1×10^−6 M
How it was run: as §3

[7] = target: T4, serotoninergic 5-HT2A receptor (Homo sapiens, UniProt P28223); assay: Cellular functional assay, serotoninergic 5-HT2A receptor (agonism/antagonism); format: cell-based
T4 sequence (P28223 whole entry): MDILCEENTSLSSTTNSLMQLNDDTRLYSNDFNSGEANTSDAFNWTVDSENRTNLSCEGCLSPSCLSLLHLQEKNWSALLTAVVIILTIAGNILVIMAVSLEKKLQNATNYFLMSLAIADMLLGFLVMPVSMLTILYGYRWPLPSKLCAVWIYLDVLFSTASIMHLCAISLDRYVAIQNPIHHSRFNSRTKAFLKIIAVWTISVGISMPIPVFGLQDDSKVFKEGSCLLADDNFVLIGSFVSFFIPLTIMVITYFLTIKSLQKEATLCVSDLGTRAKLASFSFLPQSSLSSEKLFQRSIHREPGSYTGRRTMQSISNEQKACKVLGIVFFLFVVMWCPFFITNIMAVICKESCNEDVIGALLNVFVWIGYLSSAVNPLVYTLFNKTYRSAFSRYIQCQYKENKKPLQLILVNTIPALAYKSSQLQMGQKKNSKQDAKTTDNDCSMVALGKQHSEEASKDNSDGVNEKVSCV
Procedure: […]. The compounds were tested at the concentration of 1×10^−6M.
Conditions and methodology (by reference to the literature) of cellular functional assays are given in Table 13 and the tests results for representative compounds are given in Table 14 (dopaminergic receptor D2), in Table 15 (dopaminergic receptor D3), in Table 16 (serotoninergic receptor 5-HT1A), in Table 17 (serotoninergic receptor 5-HT2A), in Table 18 (serotoninergic receptor 5-HT6), in Table 19 (serotoninergic receptor 5-HT7), in Table 20 (adrenergic α1 receptor), in Table 21 (adrenergic α2C receptor), in Table 22 (histaminergic H1 receptor) and in Table 23 (serotoninergic 5-HT2C receptor). In the Tables ag refers to agonism, and antag to antagonism).

[8] = target: T5, serotonine transporter (SERT) receptor (Homo sapiens, UniProt P31645); assay: Binding assay SERT (h), [3H]imipramine, CHO cells; settings: read-out: SERT [%]
T5 construct: expressed in transfected cells; host or cells: CHO cells
T5 sequence (P31645 whole entry): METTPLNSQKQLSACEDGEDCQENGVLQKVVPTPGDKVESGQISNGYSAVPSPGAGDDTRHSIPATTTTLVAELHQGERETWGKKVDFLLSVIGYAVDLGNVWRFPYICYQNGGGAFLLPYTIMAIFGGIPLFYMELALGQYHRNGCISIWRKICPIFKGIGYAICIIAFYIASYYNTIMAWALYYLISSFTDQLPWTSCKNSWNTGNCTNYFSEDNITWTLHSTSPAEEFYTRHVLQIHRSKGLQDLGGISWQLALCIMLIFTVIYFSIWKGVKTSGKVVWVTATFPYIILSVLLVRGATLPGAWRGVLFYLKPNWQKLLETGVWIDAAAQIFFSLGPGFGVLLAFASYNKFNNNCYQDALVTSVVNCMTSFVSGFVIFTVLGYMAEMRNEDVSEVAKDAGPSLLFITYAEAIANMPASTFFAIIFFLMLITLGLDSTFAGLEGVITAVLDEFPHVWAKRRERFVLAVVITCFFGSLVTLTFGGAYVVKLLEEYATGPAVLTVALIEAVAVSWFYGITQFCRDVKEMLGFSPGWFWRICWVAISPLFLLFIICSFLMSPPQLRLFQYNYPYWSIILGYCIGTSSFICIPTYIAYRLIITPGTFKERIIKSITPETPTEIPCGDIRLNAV
How it was run: as §3

[9] = target: T4, serotoninergic 5-HT2A receptor; assay: Binding assay 5-HT2A (h), [3H]ketanserin, HEK-293 cells; design: expressed in transfected cells; host or cells: HEK-293 cells; settings: read-out: 5-HT2A
How it was run: as §3

[10] = target: T1, serotoninergic 5-HT7 receptor; assay: Binding assay 5-HT7 (h), [3H]LSD, CHO cells; design: expressed in transfected cells; host or cells: CHO cells; settings: read-out: 5-HT7
How it was run: as §3

[11] = target: T6, adrenergic α2C receptor (Homo sapiens, UniProt P18825); assay: Binding assay α2C (h), [3H]RX 821002, CHO cells; design: expressed in transfected cells; host or cells: CHO cells; settings: read-out: α2C [%]
T6 sequence (P18825 1-462): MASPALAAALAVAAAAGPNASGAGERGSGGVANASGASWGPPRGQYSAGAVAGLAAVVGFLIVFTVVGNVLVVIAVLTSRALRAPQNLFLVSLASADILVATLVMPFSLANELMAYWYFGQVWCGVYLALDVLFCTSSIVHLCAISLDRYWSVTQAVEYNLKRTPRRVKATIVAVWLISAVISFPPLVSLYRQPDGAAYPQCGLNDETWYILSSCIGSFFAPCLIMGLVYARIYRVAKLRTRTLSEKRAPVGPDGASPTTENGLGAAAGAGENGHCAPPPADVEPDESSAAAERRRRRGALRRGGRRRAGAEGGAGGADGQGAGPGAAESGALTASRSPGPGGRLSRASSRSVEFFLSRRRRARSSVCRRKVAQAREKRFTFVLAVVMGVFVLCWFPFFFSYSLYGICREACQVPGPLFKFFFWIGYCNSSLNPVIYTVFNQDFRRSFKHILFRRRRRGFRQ
How it was run: as §3

[12] = target: T3, dopaminergic D2 receptor; assay: Binding assay D2S (h), [3H]methyl-spiperone, HEK-293 cells; design: expressed in transfected cells; host or cells: HEK-293 cells; settings: read-out: D2 [%]
How it was run: as §3
Target sequence in this assay (P14416 1-414 isoform P14416-2): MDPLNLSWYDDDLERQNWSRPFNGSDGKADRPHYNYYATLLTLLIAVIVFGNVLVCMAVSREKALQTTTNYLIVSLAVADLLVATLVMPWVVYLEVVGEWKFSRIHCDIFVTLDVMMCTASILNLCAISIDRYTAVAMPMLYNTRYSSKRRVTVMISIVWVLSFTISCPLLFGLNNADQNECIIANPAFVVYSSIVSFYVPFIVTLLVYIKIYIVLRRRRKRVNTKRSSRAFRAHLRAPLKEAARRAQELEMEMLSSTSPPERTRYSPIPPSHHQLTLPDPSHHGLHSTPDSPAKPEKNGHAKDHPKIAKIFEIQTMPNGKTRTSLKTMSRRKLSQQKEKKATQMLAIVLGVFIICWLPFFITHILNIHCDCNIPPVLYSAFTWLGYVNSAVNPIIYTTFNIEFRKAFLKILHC

[13] = target: T7, serotoninergic 5-HT1A receptor (Homo sapiens, UniProt P08908); assay: Binding assay 5-HT1A (h), [3H]8-OH-DPAT, HEK-293 cells; design: expressed in transfected cells; host or cells: HEK-293 cells; settings: read-out: 5-HT1A
T7 sequence (P08908 1-422): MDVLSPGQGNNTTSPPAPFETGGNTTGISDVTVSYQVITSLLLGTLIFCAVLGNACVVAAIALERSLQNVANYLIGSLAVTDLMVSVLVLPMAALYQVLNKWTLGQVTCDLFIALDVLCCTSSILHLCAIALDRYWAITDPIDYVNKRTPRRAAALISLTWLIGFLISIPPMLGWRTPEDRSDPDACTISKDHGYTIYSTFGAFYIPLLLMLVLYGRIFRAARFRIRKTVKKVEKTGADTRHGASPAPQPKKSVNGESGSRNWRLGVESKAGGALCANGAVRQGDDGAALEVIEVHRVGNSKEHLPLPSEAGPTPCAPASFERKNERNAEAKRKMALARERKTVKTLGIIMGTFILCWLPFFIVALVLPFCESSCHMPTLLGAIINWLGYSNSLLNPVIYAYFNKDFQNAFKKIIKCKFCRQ
How it was run: as §3

[14] = target: T8, serotoninergic 5-HT6 receptor (Homo sapiens, UniProt P50406); assay: Binding assay 5-HT6 (h), [3H]LSD, CHO cells; design: expressed in transfected cells; host or cells: CHO cells; settings: read-out: 5-HT6
T8 sequence (P50406 whole entry): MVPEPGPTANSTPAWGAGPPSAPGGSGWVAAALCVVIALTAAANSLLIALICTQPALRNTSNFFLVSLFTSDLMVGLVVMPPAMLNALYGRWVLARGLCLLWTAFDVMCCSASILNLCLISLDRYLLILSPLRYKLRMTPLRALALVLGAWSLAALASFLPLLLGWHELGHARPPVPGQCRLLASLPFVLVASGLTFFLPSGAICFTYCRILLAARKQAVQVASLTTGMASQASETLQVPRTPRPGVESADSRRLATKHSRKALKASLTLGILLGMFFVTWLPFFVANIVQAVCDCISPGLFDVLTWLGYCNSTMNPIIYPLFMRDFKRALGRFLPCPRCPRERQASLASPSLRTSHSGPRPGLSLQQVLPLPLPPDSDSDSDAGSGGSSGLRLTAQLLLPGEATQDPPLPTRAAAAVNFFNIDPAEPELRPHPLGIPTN
How it was run: as §3

[15] = target: dopaminergic D3 receptor (Homo sapiens, UniProt P35462); assay: Binding assay D3 (h), [3H]methyl-spiperone, CHO cells; design: expressed in transfected cells; host or cells: CHO cells; settings: read-out: D3 [%]
dopaminergic D3 receptor, sequence (P35462 whole entry): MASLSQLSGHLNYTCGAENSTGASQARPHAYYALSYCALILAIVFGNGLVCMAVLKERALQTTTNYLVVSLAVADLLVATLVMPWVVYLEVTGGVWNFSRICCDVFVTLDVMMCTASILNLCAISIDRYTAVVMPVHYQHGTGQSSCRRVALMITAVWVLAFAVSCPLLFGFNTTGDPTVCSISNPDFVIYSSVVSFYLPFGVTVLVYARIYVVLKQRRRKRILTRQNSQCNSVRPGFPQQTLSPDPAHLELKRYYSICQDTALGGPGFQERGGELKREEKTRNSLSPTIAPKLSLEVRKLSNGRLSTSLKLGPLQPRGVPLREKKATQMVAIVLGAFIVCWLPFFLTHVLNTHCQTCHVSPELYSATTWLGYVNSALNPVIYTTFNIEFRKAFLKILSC
How it was run: as §3

[16] = target: T8, serotoninergic 5-HT6 receptor; assay: Cellular functional assay, serotoninergic 5-HT6 receptor (agonism/antagonism); format: cell-based; settings: for activation at 1 µM: agonist effect, percent of control specific agonist response, compounds tested at 1×10^−6M, read-out: 5-HT6-ag [%]; for inhibition at 1 µM: read-out: 5-HT6-antag. [%]
Procedure: as §1, §2

[17] = target: T9, muscarinic M3 receptor (Homo sapiens, UniProt P20309); assay: Binding assay M3 (h), [3H]4-DAMP, CHO cells; settings: read-out: M3 [%]
T9 construct: expressed in transfected cells; host or cells: CHO cells
How it was run: as §3

[18] = target: hERG potassium channels (Homo sapiens, UniProt Q12809); assay: hERG potassium channel block, electrophysiology (IonWorks Quattro), CHO cells; settings: % block of hERG current, cloned hERG channels in CHO cells, IonWorks Quattro
hERG potassium channels, sequence (Q12809 whole entry): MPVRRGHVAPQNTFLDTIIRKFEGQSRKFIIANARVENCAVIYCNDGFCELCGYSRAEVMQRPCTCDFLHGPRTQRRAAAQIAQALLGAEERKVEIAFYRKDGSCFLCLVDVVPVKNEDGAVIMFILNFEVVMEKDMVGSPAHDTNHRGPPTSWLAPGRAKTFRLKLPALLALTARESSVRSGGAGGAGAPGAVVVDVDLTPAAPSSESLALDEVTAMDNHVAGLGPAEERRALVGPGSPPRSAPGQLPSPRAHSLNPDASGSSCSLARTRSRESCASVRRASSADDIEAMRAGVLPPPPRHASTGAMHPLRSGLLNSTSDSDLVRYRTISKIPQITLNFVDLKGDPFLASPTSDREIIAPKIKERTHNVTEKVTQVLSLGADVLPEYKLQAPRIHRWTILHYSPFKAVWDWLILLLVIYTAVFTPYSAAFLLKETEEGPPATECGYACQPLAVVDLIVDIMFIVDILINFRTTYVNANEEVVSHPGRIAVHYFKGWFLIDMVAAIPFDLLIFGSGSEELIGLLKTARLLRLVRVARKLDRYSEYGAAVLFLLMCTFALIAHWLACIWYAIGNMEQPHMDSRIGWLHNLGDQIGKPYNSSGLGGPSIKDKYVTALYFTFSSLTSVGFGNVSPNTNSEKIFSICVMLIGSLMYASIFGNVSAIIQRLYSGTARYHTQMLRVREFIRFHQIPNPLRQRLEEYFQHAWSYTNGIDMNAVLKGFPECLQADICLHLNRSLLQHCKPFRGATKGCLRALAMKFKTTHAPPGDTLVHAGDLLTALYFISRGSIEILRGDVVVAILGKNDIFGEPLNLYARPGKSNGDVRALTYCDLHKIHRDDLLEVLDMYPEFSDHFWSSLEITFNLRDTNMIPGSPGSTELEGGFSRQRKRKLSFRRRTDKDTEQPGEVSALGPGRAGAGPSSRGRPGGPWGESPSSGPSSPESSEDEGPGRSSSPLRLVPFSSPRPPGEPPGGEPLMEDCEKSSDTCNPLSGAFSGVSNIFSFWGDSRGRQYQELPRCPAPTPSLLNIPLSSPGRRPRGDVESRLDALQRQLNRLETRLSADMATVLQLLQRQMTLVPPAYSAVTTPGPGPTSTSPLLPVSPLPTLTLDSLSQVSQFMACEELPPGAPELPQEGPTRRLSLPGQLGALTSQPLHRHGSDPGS

[19] = target: T7, serotoninergic 5-HT1A receptor; assay: Cellular functional assay, serotoninergic 5-HT1A receptor (agonism/antagonism); format: cell-based; settings: for inhibition at 1 µM: CHO, read-out: 5-HT1A-antag. [%]; for activation at 1 µM: agonist effect, percent of control specific agonist response (100 nM 8-OH-DPAT for control), 1×10^−6 M, 5-HT1A (h), CHO cells, read-out: 5-HT1A-ag [%]
Procedure: as §1, §2

[20] = HEK293, agonist effect, percent of control specific agonist response (3 μM dopamine for control), 1×10^−6 M, D2S (h), HEK-293 cells, read-out: D2-ag [%]

Structure (SMILES)	activation at 1 µM [1] [%]	inhibition at 1 µM [1] [%]	inhibition at 1 µM [2] [%]	activation at 1 µM [3, 20] [%]	inhibition at 1 µM ([3]; HEK293) [%]	σ [%] [4] [%]	inhibition at 1 µM [5] [%]	α1 [%] [6] [%]	inhibition at 1 µM [8] [%]	inhibition at 1 µM [9] [%]	inhibition at 1 µM [10] [%]	inhibition at 1 µM [11] [%]	inhibition at 1 µM [12] [%]	inhibition at 1 µM [13] [%]	inhibition at 1 µM [14] [%]	inhibition at 1 µM [15] [%]	activation at 1 µM [16] [%]	inhibition at 1 µM [16] [%]	inhibition at 1 µM [17] [%]	hERG [%] [18] [%]	further results
Cc1cccc(S(=O)(=O)NCCCCN2CCN(c3noc4ccccc34)CC2)c1 [Compound 15, N-(4-(4-(1,2-Benzoxazol-3-yl)piperazin-1-yl)butyl)-3-methylbenzenesulphonamide]	0	96	23	2	88	47	84	102	-3	99	100	98	90	86	71	88	2	21	-9	–	activation at 1 µM ([7]; read-out: 5-HT2A -ag [%]): -1%; inhibition at 1 µM ([7]; read-out: 5-HT2A -antag [%]): 100%
O=S(=O)(NCCCCN1CCC(c2noc3cc(F)ccc23)CC1)c1cccc2ccccc12 [Compound 17, N-[4-[4-(6-Fluoro-1,2-benzoxazol-3-yl)piperidin-1-yl]butyl]naphthalene-1-sulphonamide]	–	95	62	–	–	–	80	–	44	100	99	100	98	84	99	93	2	69	7	24	–
O=S(=O)(NCCCCN1CCN(c2cccc3[nH]ccc23)CC1)c1ccc(F)c(F)c1 [Compound 29, 3,4-Difluoro-N-{4-[4-(1H-indol-4-yl)piperazin-1-yl]butyl}benzenesulphonamide]	5	9	11	45	99	93	74	99	12	64	91	98	94	99	37	98	–	–	25	–	inhibition at 1 µM [19]: 26%; activation at 1 µM [19]: 71%
O=S(=O)(NCCCCN1CCN(c2cccc3[nH]ccc23)CC1)c1c[nH]c2ncccc12 [Compound 31, N-{4-[4-(1H-Indol-4-yl)piperazin-1-yl]butyl}-1H-pyrrolo[2,3-b]pyridine-3-sulphonamide]	–	–	–	–	–	–	–	101	-2	36	87	–	38	82	18	96	–	–	–	2	–
O=S(=O)(NCCCCN1CCN(c2cccc3[nH]ccc23)CC1)c1ccc(C(F)(F)F)cc1 [Compound 360, N-[4-[4-(1H-Indol-4-yl)piperazin-1-yl]butyl]-4-(trifluoromethyl)benzenesulphonamide]	–	–	–	–	–	–	–	93	8	67	100	–	99	83	67	100	–	–	–	5	–
Cc1[nH]c2ccc(Cl)cc2c1C1=CCN(CCNS(=O)(=O)c2cccc(Cl)c2)CC1 [Compound 452, 3-Chloro-N-[2-[4-(5-chloro-2-methyl-1H-indol-3-yl)-3,6-dihydro-2H-pyridin-1-yl]ethyl]-benzenesulphonamide]	–	–	–	–	53	–	–	14	18	–	41	–	42	–	108	14	–	–	–	–	activation at 1 µM ([3]; HEK293, read-out: D2-ag [%]): 24%; inhibition at 1 µM [19]: 7%; activation at 1 µM [19]: 30%
